Source: patent US6949250B2, “Selective algaecides for control of cyanochloronta” (The United States of America as represented by the …, priority 2002, dated 2005)

Columns and labels:
[1] = Detection of DNA1-19-1 in pond water samples; assay type: physicochemical; conditions: samples collected at and after 24 hours after application to water within limnocorrals
Text: The attempts to develop a reproducible analytical method to determine the levels of DNA1-19-1 in the pond water were unsuccessful. DNA1-19-1 is believed to bind quickly to suspended soil particles due to the positively charged nature of the 2-methylamino chain; evident by the lack of detection of DNA1-19-1 in the water. Since the levels of suspended soil particles in each water sample varied and an accurate measurement of the soil particles present in each sample could not be obtained, the consistent recoveries of DNA1-19-1 from the particulate portions of water samples could not be achieved.

[2] = test system: 2-methylisoborneol; assay: DNA1-19-1 first pond efficacy study (limnocorrals): MIB levels; assay type: in vivo; conditions: 2 μM
[3] = test system: Oscillatoria agardhii; assay: DNA2-59-1 third pond efficacy study: Oscillatoria agardhii abundance; assay type: in vivo; conditions: 0.3 μM
Experimental: (§1) The method described by Schrader et al. (2000) was used to determine the potential for using the anthraquinone derivatives as selective algicides in catfish aquaculture ponds. All catfish ponds used in efficacy tests were maintained using commercial pond management practices and were located at the Thad Cochran Pond Facility, Mississippi State University, Stoneville, Miss. Anthraquinone analogs were dissolved in deionized water before application to water within the limnocorrals.
(§2) Limnocorrals in which test compound was applied to the enclosed water were randomly selected, and control (no test compound applied) limnocorrals were included in each efficacy study. For each sampling, two water samples (250 mL) were obtained from within each limnocorral (approximately 6-8 cm below the water surface and from opposite sides of each limnocorral) and mixed together in a 500 mL sample bottle to provide a representative sample of the water contained within the limnocorral.
For the third efficacy test with DNA2-59-1, twelve limnocorrals (2.44 m in diameter and 1.53 m high) were placed in a 4-ha earthen pond containing a bloom of O. perornata. […]

[4] = test system: green algae; assay: DNA2-59-1 second pond efficacy study: green algae abundance; assay type: in vivo; conditions: 0.3 μM
Experimental: as §1, §2
In the second efficacy test with DNA2-59-1, six limnocorrals (1.53 m in diameter and 1.53 m high) were placed in a 0.1-ha earthen pond containing a heavy bloom of O. perornata. The same delay in mixing the water within the limnocorrals used in the first efficacy study was utilized. Water within three randomly selected limnocorrals received an application rate of 0.3 μM DNA2-59-1, and the other three limnocorrals were controls. […]

[5] = DNA2-59-1 second efficacy study: dissipation rate and half-life in pond water (HPLC); assay type: physicochemical; conditions: for DNA2-59-1 Levels in Pond Water: second study, 0.3 μM applied
Experimental: In the second efficacy test with DNA2-59-1, six limnocorrals (1.53 m in diameter and 1.53 m high) were placed in a 0.1-ha earthen pond containing a heavy bloom of O. perornata. The same delay in mixing the water within the limnocorrals used in the first efficacy study was utilized. Water within three randomly selected limnocorrals received an application rate of 0.3 μM DNA2-59-1, and the other three limnocorrals were controls. Water samples were collected before application of DNA2-59-1, 20 minutes after application, and at days 1, 2, 3, and 7. The same tests and methods used in the first efficacy testing of DNA2-59-1 were used.
Approximately 15 mL each of water samples from DNA2-59-1 efficacy testing that were designated for HPLC analysis were placed in scintillation vials and held in a freezer. Water samples were later melted at room temperature, and 5 mL of each sample was then filtered through a nylon membrane filter (13 mm diameter and 0.45 μm; Whatman International, Maidstone, England) using a 5 mL syringe (Hamilton Company, Reno, Nev.) and a 13 mm syringe filter holder (Fisher Scientific Company, Pittsburgh, Pa.). Filtrate (1 mL) was placed in 2 mL vials and capped using teflon/rubber septum caps (National Scientific Company, Jeddah, Saudia Arabia). The filter paper was removed and placed in a scintillation vial to which 2 mL of HPLC grade methanol (Fisher Scientific, Fair Lawn, N.J.) was added and then sonicated for 5 minutes. The methanol solution was then filtered using a nylon membrane acrodisc (25 mm and 0.45 μm; Pall Life Sciences, Ann Arbor, Mich.), and the methanol filtrate was placed in separate 2 mL vials.
Filtrate samples were analyzed using a Waters 2690 Alliance HPLC containing a 996 PDA detector and a XTerra RP 18 column (150 mm×4.6 mm, 5 μm particle size; Waters Corporation, Milford, Mass.). The mobile phase consisted of 25 mM sodium dihydrogenphosphate in 0.1% phosphoric acid (A) and acetonitrile (B). The gradient was from 80A/20B in 15 minutes to 40A/60B. After each run, a 5 minute wash with methanol was performed, followed by equilibrating the column for 10 minutes with 80A/20B. The temperature was set at 40° C., the flow rate was 1 mL/minute, the detection wavelength 256 nm, and the sample injection volume was 10 μL. All solvents used were HPLC grade (Fisher Scientific, Fair Lawn, N.J.).
Means and standard deviations of data were determined and graphed. The graphs were used to help determine the half-life of DNA2-59-1 in the pond water. Because of the short duration of the first efficacy study, the half-life of DNA2-59-1 in the pond water could not be determined.

[6] = test system: chlorophyll a; assay: DNA2-59-1 first pond efficacy study: chlorophyll a; assay type: in vivo
Experimental: as §1
Limnocorrals in which test compound was applied to the enclosed water were randomly selected, and control (no test compound applied) limnocorrals were included in each efficacy study. […]
In the first study, application rates of 0.1 μM (37.7 μg/L), 0.3 μM ([…]), and 1.0 μM (377 μg/L) of DNA2-59-1 were tested using limnocorrals (three replicates per concentration) that were of the same type used for testing DNA1-19-1. […] Water samples were also analyzed to determine the persistence of DNA2-59-1 in the pond water, and this analysis was performed by using high-pressure liquid chromatography (HPLC) (method and results are described later).

Structure (SMILES)	detection in soluble fractions of water samples (result in words) [1]	Levels of MIB after reduction [2]	time MIB levels remained much lower than in the controls [2]	Levels of MIB before reduction ([2]; ng/mL (ppb))	Numbers of Oscillatoria agardhii (result in words) [3]	Green algae (result in words) [4]	half-life at 0.3 μM ([5]; pond water in limnocorrals (earthen catfish pond), second efficacy study)	DNA2-59-1 Levels in Pond Water ([5]; 0 hours)	DNA2-59-1 Levels in Pond Water ([5]; 24 hours)	DNA2-59-1 Levels in Pond Water ([5]; 48 hours)	DNA2-59-1 Levels in Pond Water ([5]; 72 hours)	DNA2-59-1 Levels in Pond Water ([5]; 168 hours)	Chlorophyll a levels significantly reduced compared to controls (result in words) ([6]; 0.1 μM)	chlorophyll a levels compared to controls (result in words) ([6]; 1 and 0.3 μM)
CCN(CC)CCCC(C)NCc1ccc2c(c1)C(=O)c1ccccc1C2=O.O=P(O)(O)O.O=P(O)(O)O (centres unmarked) [DNA1-19-1, 2-[methylamino-N-(1′-methyl-4′-N,N-diethylaminobutyl)]-9,10-anthraquinone diphosphate]	could not be detected	~970 ng/mL	8 days	15,250 ng/mL	–	–	–	–	–	–	–	–	–	–
CC(C)NCc1ccc2c(c1)C(=O)c1ccccc1C2=O [DNA2-59-1, 2-[methylamino-N-(1′-methylethyl)]-9,10-anthraquinone monophosphate]	–	–	–	–	significantly reduced	not significantly affected	19 h	94.8 ± 11.5 µg/L	36.1 ± 4.5 µg/L	16.3 ± 0.4 µg/L	7.6 ± 0.7 µg/L	0 µg/L	not	significantly reduced
